In this test the target is MetAP-2 (Homo sapiens, UniProt P50579). As to the kind of experiment: MetAP-2 activity measurement (coupled enzymatic reactions, Met-Arg-Ser substrate, dianisidine detection at 450 nm). Format: biochemical. Conditions: Inhibition of MetAP-2; read-out: IC50 enzyme. The procedure:
MetAP-2 Activity Measurement
The MetAP-2 activity is determined by coupling enzymatic reactions. The tripeptide Met-Arg-Ser (MAS) is employed as substrate. The methionine liberated is firstly converted into Metox and H2O2 by L-aminooxidase (AAO). In the second step, the peroxidase (POD) with the aid of the H2O2 catalyses the oxidation of the leukodye dianisidine to dianisidineox, the increase of which is detected photometrically at 450 nm.
MetAP-2 activity can be recorded continuously as kinetics. The reaction scheme illustrates that one mol of dianisidineox is formed per mol of methionene. The MetAP-2 enzyme activity can therefore be calculated directly as A absorption per time unit. Qualification of the MetAP-2 activity (mol of Met/time unit) is possible with the aid of the dianisidineox extinction coefficient.
The change in extinction per time unit is depicted graphically and a slope calculation is carried out in the visually linear region of the reaction.

Where only a bound is given, the exact number is not on record here.

MetAP-2, sequence (P50579 whole entry, species assumed): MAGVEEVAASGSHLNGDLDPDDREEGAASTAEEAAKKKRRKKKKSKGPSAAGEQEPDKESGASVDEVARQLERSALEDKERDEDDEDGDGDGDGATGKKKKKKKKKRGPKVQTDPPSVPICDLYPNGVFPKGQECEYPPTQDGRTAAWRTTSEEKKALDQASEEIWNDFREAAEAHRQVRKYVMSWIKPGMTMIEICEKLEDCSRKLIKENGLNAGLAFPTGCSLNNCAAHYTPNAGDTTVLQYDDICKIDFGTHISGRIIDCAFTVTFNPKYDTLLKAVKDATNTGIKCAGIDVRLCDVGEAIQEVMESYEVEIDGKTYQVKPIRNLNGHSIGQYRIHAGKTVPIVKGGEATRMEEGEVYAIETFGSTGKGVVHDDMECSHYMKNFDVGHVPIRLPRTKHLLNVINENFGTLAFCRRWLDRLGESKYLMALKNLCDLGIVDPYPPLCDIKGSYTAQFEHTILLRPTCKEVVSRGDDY

Consider `O=C(NCc1cc(F)cc(Cl)c1)[C@@]1(O)CCCCN(c2ccccc2)C1=O` [A66, N-(3-chloro-5-fluorobenzyl)-(S)-3-hydroxy-2-oxo-1-phenylazepane-3-carboxamide], for which the IC50 is 1 to 10 µM.

As to `O=C1NCCc2cc(N3CC[C@@](O)(C(=O)NCc4cc(F)cc(Cl)c4)C3=O)ccc21` [A105, N-(3-Chloro-5-fluorobenzyl)-(R)-3-hydroxy-2-oxo-1-(1-oxo-1,2,3,4-tetrahydroisoquinolin-6-yl)pyrrolidine-3-carboxamide], the IC50 is greater than 10 µM.

Turning to `O=C1N(Cc2cccc(F)c2F)CCC[C@@]1(O)CNCc1cccc(F)c1` [B23, (R)-1-(2,3-Difluorobenzyl)-3-[(3-fluorobenzylamino)methyl]-3-hydroxypiperidin-2-one], the IC50 was 1 to 10 µM.

With `O=C(NCc1cc(F)cc(Cl)c1)C1(O)CCN(c2cnc3c(c2)OCCN3)C1=O` (stereo not shown) [A118, N-(3-Chloro-5-fluorobenzyl)-1-(3,4-Dihydro-2H-pyrido[3,2-b]-1,4-oxazin-7-yl)-3-hydroxy-2-oxopyrrolidine-3-carboxamide], the IC50 was 0.01 to 1 µM.

As to `O=C(CN1CCC(O)(C(=O)NCc2cc(F)cc(Cl)c2)C1=O)Nc1ccccc1` (stereo not shown) [A187, N-(3-Chloro-5-fluorobenzyl)-3-hydroxy-2-oxo-1-phenyl-carbamoylmethylpyrrolidine-3-carboxamide], the IC50 lay in the range of 1 to 10 µM.

In the case of `CS(=O)(=O)N[C@H]1CC[C@H](N2CCC(O)(C(=O)NCc3cc(F)cc(Cl)c3)C2=O)CC1` (stereo partly shown) [A123, N-(3-Chloro-5-fluorobenzyl)-3-hydroxy-1-(4-methane-sulfonylaminocyclohexyl)-2-oxo-pyrrolidine-3-carboxamide], the IC50 was in the range of 1 to 10 µM.

As for `O=C(NCc1cc(F)cc(Cl)c1)[C@@]1(O)CCN(CCc2ccccc2)C1=O` [A90, N-(3-Chloro-5-fluorobenzyl)-(S)-3-hydroxy-2-oxo-1-phenethyl-pyrrolidine-3-carboxamide], the IC50 fell in the range of 0.01 to 1 µM.

In the case of `O=C(c1cccc(N2CC[C@](O)(C(=O)NCc3cc(F)cc(Cl)c3)C2=O)c1)N1CCCC1` [A77, N-(3-Chloro-5-fluorobenzyl)-(S)-3-hydroxy-2-oxo-1-[3-(pyrrolidine-1-carbonyl)phenyl]pyrrolidine-3-carboxamide], the IC50 is 0.01 to 1 µM.

With `CC(C)(C)OC(=O)Nc1ccc(N2CCC(O)(C(=O)NCc3cc(F)cc(Cl)c3)C2=O)cc1CCC(=O)O` (stereo not shown) [B106, 3-{2-tert-Butoxycarbonylamino-5-[3-(3-chloro-5-fluorobenzyl-carbamoyl)-3-hydroxy-2-oxo-pyrrolidin-1-yl]phenyl}propionic acid], the IC50 lay in the range of 1 to 10 µM.

For `O=C1CCc2cc(N3CCCC(O)(CNCc4cc(F)cc(Cl)c4)C3=O)ccc2N1` (stereo not shown) [B68, 6-{3-[(3-Chloro-5-fluorobenzylamino)methyl]-3-hydroxy-2-oxopiperidin-1-yl}-3,4-dihydro-1H-quinolin-2-one], the IC50 was 1 to 10 µM.

For the compound `O=C(NCc1cc(F)cc(Cl)c1)C1(O)CCN(Cc2nc3ccccc3s2)C1=O` (stereo not shown) [A270, N-(3-Chloro-5-fluorobenzyl)-1-benzothiazol-2-ylmethyl-3-hydroxy-2-oxopyrrolidine-3-carboxamide], the IC50 is 0.01 to 1 µM.

Take `O=C1N(c2ccccc2)CCCC1(O)CNCc1cc(F)cc(Cl)c1` (stereo not shown) [B32, 3-[(3-Chloro-5-fluorobenzylamino)methyl]-3-hydroxy-1-phenylpiperidin-2-one]: the IC50 was 0.01 to 1 µM.

Take `N#Cc1c[nH]c2ccc(N3CC[C@@](O)(C(=O)NCc4cc(F)cc(Cl)c4)C3=O)cc12` [A224, N-(3-Chloro-5-fluorobenzyl)-(R)-1-(3-cyano-1H-indol-5-yl)-3-hydroxy-2-oxopyrrolidine-3-carboxamide]: the IC50 fell in the range of 1 to 10 µM.

As to `O=C(NCc1cc(F)cc(Cl)c1)[C@]1(O)CCN(OCc2ccccc2)C1=O` [B138, N-(3-Chloro-5-fluorobenzyl)-(R)-1-benzyloxy-3-hydroxy-2-oxo-pyrrolidine-3-carboxamide], the IC50 was greater than 10 µM.

In the case of `O=C(NCc1cccc(F)c1)[C@]1(O)CCCN(CC2CCCCC2)C1=O` [A263, N-(3-fluorobenzyl)-(R)-1-cyclohexylmethyl-3-hydroxy-2-oxopiperidine-3-carboxamide], the IC50 was greater than 10 µM.

Turning to `O=C(NCc1cc(F)cc(Cl)c1)C1(O)CCN(c2ccc3[nH]cc(C(F)(F)F)c3c2)C1=O` (stereo not shown) [B43, N-(3-Chloro-5-fluorobenzyl)-3-hydroxy-2-oxo-1-(3-trifluoromethyl-1H-indol-5-yl)-pyrrolidine-3-carboxamide], the half-inhibitory concentration (IC50) was in the range of 0.01 to 1 µM.

With `O=C(NCc1cc(F)cc(Cl)c1)C1(O)CCN(c2ccc3cc[nH]c3c2)C1=O` (stereo not shown) [A68, N-(3-Chloro-5-fluorobenzyl)-3-hydroxy-1-(1H-indol-6-yl)-2-oxo-pyrrolidine-3-carboxamide], the IC50 fell in the range of 0.01 to 1 µM.

Consider `CCNC(=O)c1cc2cc(N3CC[C@](O)(C(=O)NCc4cc(F)cc(Cl)c4)C3=O)ccc2o1` [A194, N-(3-Chloro-5-fluorobenzyl)-(S)-1-(2-ethylcarbamoylbenzofuran-5-yl)-3-hydroxy-2-oxopyrrolidine-3-carboxamide], for which the IC50 was 0.01 to 1 µM.

Turning to `O=C(O)c1cc2cc(N3CC[C@](O)(C(=O)NCc4cc(F)cc(Cl)c4)C3=O)ccc2[nH]1` [B84, 5-[(S)-3-(3-Chloro-5-fluorobenzylcarbamoyl)-3-hydroxy-2-oxopyrrolidin-1-yl]-1H-indole-2-carboxylic acid], the IC50 fell in the range of 0.01 to 1 µM.

On to `O=C(NCc1cccc(F)c1)[C@@]1(O)CCCN(Cc2cccc(F)c2F)C1=O` [A254, N-(3-Fluorobenzyl)-(S)-1-(2,3-difluorobenzyl)-3-hydroxy-2-oxo-piperidine-3-carboxamide], for which the IC50 fell in the range of 0.01 to 1 µM.

As for `NC(=O)c1cc(N2CCC(O)(C(=O)NCc3cc(F)cc(Cl)c3)C2=O)cc(C(F)(F)F)c1` (stereo not shown) [A204, N-(3-Chloro-5-fluorobenzyl)-1-(3-carbamoyl-5-trifluoromethyl-phenyl)-3-hydroxy-2-oxo-pyrrolidine-3-carboxamide], the IC50 lay within 1 to 10 µM.

Consider `CNc1ccc(N2CCC(O)(C(=O)NCc3cc(F)cc(Cl)c3)C2=O)cn1` (stereo not shown) [A116, N-(3-Chloro-5-fluorobenzyl)-3-hydroxy-1-(6-methylamino-pyridin-3-yl)-2-oxopyrrolidine-3-carboxamide], for which the IC50 lay within 0.01 to 1 µM.

`N#Cc1cc2cc(N3CCC(O)(C(=O)NCc4cc(F)cc(Cl)c4)C3=O)ccc2[nH]1` (stereo not shown) [A217, N-(3-Chloro-5-fluorobenzyl)-1-(2-cyano-1H-indol-5-yl)-3-hydroxy-2-oxopyrrolidine-3-carboxamide]: the IC50 was 0.01 to 1 µM.

Turning to `NC(=O)c1cc2cc(N3CC[C@@](O)(C(=O)NCc4cc(F)cc(Cl)c4)C3=O)ccc2[nH]1` [B79, 5-[(R)-3-(3-Chloro-5-fluorobenzylcarbamoyl)-3-hydroxy-2-oxopyrrolidin-1-yl]-1H-indole-2-carboxamide], the IC50 fell in the range of 1 to 10 µM.

As for `O=C1CCc2cc(N3CC[C@](O)(C(=O)NCc4cccc(F)c4)C3=O)ccc2N1` [B56, N-(3-Fluorobenzyl)-(S)-3-hydroxy-2-oxo-1-(2-oxo-1,2,3,4-tetrahydroquinolin-6-yl)-pyrrolidine-3-carboxamide], the IC50 is 0.01 to 1 µM.

On to `O=C(NCCCO)c1cccc(N2CC[C@](O)(C(=O)NCc3cc(F)cc(Cl)c3)C2=O)c1` [A94, N-(3-Chloro-5-fluorobenzyl)-(S)-3-hydroxy-1-[3-(3-hydroxy-propylcarbamoyl)phenyl]-2-oxo-pyrrolidine-3-carboxamide], for which the IC50 was in the range of 0.01 to 1 µM.

`NCCNC(=O)c1cc2cc(N3CC[C@](O)(C(=O)NCc4cc(F)cc(Cl)c4)C3=O)ccc2[nH]1` [B132, N-(2-Aminoethyl)-5-[(S)-3-(3-chloro-5-fluorobenzyl-carbamoyl)-3-hydroxy-2-oxo-pyrrolidin-1-yl]-1H-indole-2-carboxamide]: the IC50 lay within 0.01 to 1 µM.

For `O=C(NCc1cc(F)cc(Cl)c1)C1(O)CCN(c2ccc3c(c2)c(C(F)(F)F)cn3CO)C1=O` (stereo not shown) [A112, N-(3-Chloro-5-fluorobenzyl)-3-hydroxy-1-(1-hydroxymethyl-3-trifluoromethyl-1H-indol-5-yl)-2-oxopyrrolidine-3-carboxamide], the 50% inhibitory concentration (IC50) lay in the range of 0.01 to 1 µM.

Consider `O=C(NCc1cc(F)cc(Cl)c1)C1(O)CCN(c2cnc3[nH]cnc3c2)C1=O` (stereo not shown) [B35, N-(3-Chloro-5-fluorobenzyl)-3-hydroxy-1-(3H-imidazo[4,5-b]-pyridin-6-yl)-2-oxopyrrolidine-3-carboxamide], for which the IC50 is 0.01 to 1 µM.

Consider `O=C1CCc2cc(N3CC[C@](O)(C(=O)NCc4c(F)ccc(Cl)c4F)C3=O)ccc2N1` [A250, N-(3-Chloro-2,6-difluorobenzyl)-(S)-3-hydroxy-2-oxo-1-(2-oxo-1,2,3,4-tetrahydroquinolin-6-yl)-pyrrolidine-3-carboxamide], for which the IC50 lay within 0.01 to 1 µM.

For `C=C(Cc1ccccc1)C(=O)[C@]1(O)CCN(c2ccccc2)C1=O` [A111, (R)-3-(2-Benzylacryloyl)-3-hydroxy-1-phenylpyrrolidin-2-one], the IC50 was greater than 10 µM.

Turning to `O=C(NCc1ccc(F)cc1)[C@@]1(O)CCCN(Cc2cccc(F)c2F)C1=O` [A255, N-(4-Fluorobenzyl)-(S)-1-(2,3-difluorobenzyl)-3-hydroxy-2-oxo-piperidine-3-carboxamide], the IC50 was 1 to 10 µM.

As to `NC(=O)c1cc2cc(N3CC[C@](O)(C(=O)NCc4cc(F)cc(Cl)c4)C3=O)ccc2[nH]1` [B78, 5-[(S)-3-(3-Chloro-5-fluorobenzylcarbamoyl)-3-hydroxy-2-oxopyrrolidin-1-yl]-1H-indole-2-carboxamide], the IC50 was in the range of 0.01 to 1 µM.

`O=C(NCc1cc(F)cc(Cl)c1)C1(O)CCN(CCc2c[nH]c3ccc(F)cc23)C1=O` (stereo not shown) [A219, N-(3-Chloro-5-fluorobenzyl)-1-[2-(5-fluoro-1H-indol-3-yl)ethyl]-3-hydroxy-2-oxopyrrolidine-3-carboxamide]: the IC50 lay within 0.01 to 1 µM.

(Values after patent US10093623B2, “Cyclic amides as MetAP-2 inhibitors” (MERCK PATENT GmbH, priority 2012, dated 2018).)
